Measurements taken from patent publication US10898421B2, “Anti-dandruff composition comprising pycnidione and epolone” (Croda International PLC, priority 2015, dated 2021).
Where two headings read alike, the source gives them in different places.

Experiments:
[1] = test system: Malassezia furfur (ATCC #38593); assay: Anti-fungal activity against Malassezia furfur (96 well broth assay, Alamar blue); type: cell-based; conditions: ATCC38593, 120 h; for IC50: read-out: M. furfur IC50; for MIC: visible growth
Protocol: The terms Minimum Inhibitory Concentration and Half Maximal Inhibitory Concentration will be understood to have the following meanings. • Minimum Inhibitory Concentration (MIC) The minimum inhibitory concentration (MIC) will be understood to represent the lowest concentration of an anti-microbial that will inhibit the visible growth of a microorganism after overnight incubation. • Half Maximal Inhibitory Concentration (IC50) The half maximal inhibitory concentration (IC50) is a measure of the effectiveness of a substance in inhibiting a spec biological or biochemical function. This quantitative measure indicates how much of a particular drug or other substance (inhibitor) is needed to inhibit a given biological process (or component of a process, i.e. an enzyme, cell, cell receptor or microorganism) by half. IC50 represents the concentration of an active that is required for 50% inhibition in-vitro.
Malassezia furfur (ATCC #38593) was cultured on Media C agar for 7 days at 37° C. Yeast colonies were then harvested into 0.9% saline sterile diH2O and diluted to approximately 1.5×10^6 CFU/mL using a 0.5 MacFarland standard (Fisher #R20410) to create an assay inoculum. Assay inoculum was added to sterile Media C broth to a final concentration of 4.5×10^4 CFU/mL. Assays were carried out in 96 well plates with a final well volume of 100 μL.
Extract fractions and pure compounds were tested in triplicate against each organism. Extract fractions and pure compounds were re-suspended in sterile 20% DMSO.
Each plate contained eight un-inoculated positive controls (media+20% DMSO), eight untreated negative controls (Media+20% DMSO+organism), and one column containing a concentration range of a ketoconazole as a control antibiotic. The assay plate was incubated at 37° C. for 5 days after which growth within the wells were visualised and photographed with a UVP Biospectrum 500 imaging system. Alamar blue was then added to each well at 10% of the culture volume (11 μL in 100 μL). Fluorescence was monitored using a BioTek Synergy HT plate reader at 530/25 excitation, 590/35 emission and 35 sensitivity at both time zero and 4 hours after Alamar blue was added. After subtracting the time zero emission 590 nm measurement from the final reading the inferred percentage of microorganism survival relative to vehicle control wells were calculated and the IC50 was determined.

[2] = Cytotoxicity against keratinocyte cells (Alamar blue); type: cell-based, human; conditions: human
Protocol: (§1) Adult human epidermal keratinocytes (Heka) isolated from skin (Invitrogen #C-005-5C) were grown and maintained in 15 mL of EPilife medium (Invitrogen #M-EPI-500) supplemented with HKGS growth supplements (Invitrogen #S-001-5) (0.2% v/v bovine pituitary extract (BPE), 5 μg/mL bovine insulin, 0.18 μg/mL hydrocortisone, 5 μg/mL bovine transferrin, 0.2 ng/mL human epidermal growth factor) and 50 μg/mL gentamicin (Sigma #G1397-10ML) in T75 cm2 cell culture flasks (VWR #CABD353136) and incubated at 37° C. in a humidified atmosphere of 5% CO2. Growth medium was refreshed every 2 days until the cells reached 50% confluency and then the medium was refreshed every 24 hours until 80% confluency was obtained.
(§2) At 80% confluency, the cells were counted, diluted and plated into 96 well treated cell culture plates (VWR #29442-054) at a cell density of 10000 cells per well in 90 μL of respective growth medium. All media used for the assay were the same without the addition of antibiotics. The plates were incubated at 37° C. in a humidified atmosphere of 5% CO2 to allow cells to adhere to the plates for 24 hrs before treatment. DMSO was used as the vehicle at a final concentration of 1% in the wells.
(§3) All compounds to be tested were resolublised in sterile DMSO (Sigma #D2438) and a dilution series was prepared for each cell line using the respective cell culture growth medium of which 10 μL were added to the respective assay plate well yielding eight final concentrations ranging from 128 μg/mL to 1 μg/mL per well (final well volume of 100 μL) and incubated at 37° C. in a humidified atmosphere of 5% CO2 for 24 hrs.
(§4) All samples were tested in triplicate. Each plate contained eight un-inoculated positive controls (media+20% DMSO), eight untreated negative controls (Media+20% DMSO+cells). Alamar blue (Invitrogen #Dal1100) was added, 24 hrs after treatment, to each well at 10% of the culture volume (11 μL in 100 μL). Fluorescence was monitored using a BioTek Synergy HT plate reader at 530/25 excitation, 590/35 emission and 35 sensitivity at both time zero and 4 hrs after Alamar blue was added. After subtracting the time zero emission 590 nm measurement from the final reading the inferred percentage of microorganism survival relative to vehicle control wells were calculated and the IC50 was determined.

[3] = test system: Adult human epidermal keratinocytes (Heka); assay: as above; type: cell-based; conditions: for Keratinocyte MIC: 24 hrs treatment
Protocol: as §1, §2, §3, §4

[4] = Cytotoxicity against fibroblast cells (Alamar blue); type: cell-based, human; conditions: human, 24 hrs treatment, Alamar blue, read-out: Fibroblast IC50
Protocol: (§5) Human foreskin BJ fibroblast cells (ATCC CRL-2522) were grown and maintained in 15 mL of Eagle's minimal essential medium (Sigma M5650) supplemented with 10% fetal bovine serum (VWR #CA95043-976) and 100 μU penicillin and 0.1 mg/mL streptomycin (VWR #CA12001-692) in T75 cm2 cell culture flasks (VWR #CABD353136) at 37° C. in a humidified atmosphere of 5% CO2. Culture medium was refreshed every two to three days and cells were not allowed to exceed 80% confluency.
as §2, §3, §4

[5] = test system: Human foreskin BJ fibroblast cells (ATCC CRL-2522); assay: as above; type: cell-based; conditions: for Fibroblast MIC: 24 hrs treatment
Protocol: as §5, §2, §3, §4

[6] = Stability of pycnidione formulated in off-the-shelf shampoo composition; type: physicochemical; conditions: J&J baby shampoo, after a two month period
[7] = adult human epidermal keratinocytes (Heka), 24 hrs treatment, Alamar blue, read-out: Keratinocyte IC50
[8] = human foreskin BJ fibroblast cells (ATCC CRL-2522)
[9] = at 8 μg/ml, where inhibition of Malassezia yeasts is retained

Cc1cc(=O)c(O)cc2c1C[C@H]1CC(C)(C)/C=C/C[C@@]3(C)Oc4cc(O)cc(C)c4C[C@@H]3C[C@H](O)[C@]1(C)O2 [Epolone A, epolone A]
IC50 ([1]; 37° C., 5 days, Alamar blue): 48 µg/mL
MIC ([1]; 37° C., 5 days): 64 µg/mL
CC50 at 24 h [2, 7]: 13 µg/mL
Keratinocyte MIC [3]: 32 µg/mL
CC50 at 24 h [4, 8]: 14 µg/mL
Fibroblast MIC [5]: 32 µg/mL

C/C1=C\CC(C)(C)/C=C/C[C@@]2(C)Oc3cc(O)c(=O)cc(C)c3C[C@@H]2C[C@H]1O [Epolone B, epolone B]
IC50 ([1]; 37° C., 5 days, Alamar blue): 24 µg/mL
MIC ([1]; 37° C., 5 days): 32 µg/mL
CC50 at 24 h [2, 7]: 50 µg/mL
Keratinocyte MIC [3]: >128 µg/mL
CC50 at 24 h [4, 8]: > 128 µg/mL
Fibroblast MIC [5]: >128 µg/mL

[O-]n1ccccc1=S.[O-]n1ccccc1=S.[Zn+2] [zinc pyrithione, zinc salt of 1-hydroxy-2-pyridinethione, reference compound]
Keratinocyte MIC [3]: 1 µg/mL

Cc1cc(=O)c(O)cc2c1C[C@H]1CC(C)(C)/C=C/C[C@@]3(C)Oc4cc(O)c(=O)cc(C)c4C[C@@H]3C[C@H](O)[C@]1(C)O2 [Pycnidione, pycnidione]
MIC ([1]; 37° C., 5 days): 8 µg/mL
IC50 [1]: 6 µg/mL
CC50 at 24 h ([2]; text of b135, read-out: IC50, toxicity to keratinocyte cells): 15 µg/mL
Keratinocyte MIC [3]: 64 µg/mL
cell line cytotoxicity at lower concentrations (keratinocyte) [3, 9]: no cell line cytotoxicity was observed
CC50 at 24 h [4]: 11 µg/mL
Fibroblast MIC [5]: 64 µg/mL
cell line cytotoxicity at lower concentrations (fibroblast) [5, 9]: no cell line cytotoxicity was observed
stability of shampoo composition [6]: remained stable
